Measurements taken from patent US20230049952A1, “METHODS AND COMPOUNDS FOR RESTORING MUTANT P53 FUNCTION” (PMV Pharmaceuticals, Inc., priority 2020, published 2023).
“And” between values parts separate entries of the source, which are not always exact repeats. Identical values can stand only once.

Assay: Compound 2 and metabolites in rat plasma, 50 mg/kg PO QD×10
Format: in vivo
Conditions: for Average Concentration: rat plasma
Experimental: The proposed metabolite pathway was determined in vitro, and levels of potential metabolites were measured by LC/MS-MS in rat plasma remaining from the dose rising 10-day repeat dose study in rats. Six potential metabolites were quantified in the low (50 mg/kg) single dose rats. […] Rats were rotated between timepoints to form a composite PK curve. […] A 100 μL aliquot of the supernatant was transferred to the sample plate and mixed with 100 μL of water, then the plate was shaken at 800 rpm for 10 min. 0.5-2 μL supernatant was then injected into a Triple Quad 6500+ for LC-MS/MS analysis. The standard curve was generated at 1-3000 ng/mL for the compounds in rat plasma (EDTA-K2).
The male and female PK parameters were averaged together since there was <2-fold variation between the genders. All values deemed below the level of quantification (BLQ) were excluded from the PK parameters calculations.

[1] = Compound 2 50 mg/kg PO QD×1, 1 h, 50 mg/kg
[2] = Compound 2 50 mg/kg PO QD×1, 2 h, 50 mg/kg
[3] = Compound 2 50 mg/kg PO QD×1, 4 h, 50 mg/kg
[4] = Compound 2 50 mg/kg PO QD×1, 8 h, 50 mg/kg
[5] = Compound 2 50 mg/kg PO QD×1, 24 h, 50 mg/kg
[6] = Compound 2 50 mg/kg PO QD×10, 1 h post tenth dose, 50 mg/kg
[7] = Compound 2 50 mg/kg PO QD×10, 2 h post tenth dose, 50 mg/kg
[8] = Compound 2 50 mg/kg PO QD×10, 4 h post tenth dose, 50 mg/kg
[9] = Compound 2 50 mg/kg PO QD×10, 8 h post tenth dose, 50 mg/kg
[10] = Compound 2 50 mg/kg PO QD×10, 24 h post tenth dose, 50 mg/kg
[11] = Compound 2 50 mg/kg PO QD×10, 48 h post tenth dose, 50 mg/kg
[12] = Day 1, of Compound 2 AUC0-24, rat, 50 mg/kg PO
[13] = Day 1, rat, Compound 2 50 mg/kg PO
[14] = Day 10, of Compound 2 AUC0-last, rat, 50 mg/kg PO QD×10
[15] = Day 10, rat, Compound 2 50 mg/kg PO QD×10
[16] = after single (first) 50 mg/kg PO dose of Compound 2
[17] = Compound 2 50 mg/kg PO QD×1, 1 h
[18] = Compound 2 50 mg/kg PO QD×1, 2 h
[19] = Compound 2 50 mg/kg PO QD×1, 4 h
[20] = Compound 2 50 mg/kg PO QD×1, 8 h
[21] = Compound 2 50 mg/kg PO QD×1, 24 h
[22] = Compound 2 50 mg/kg PO QD×10, 1 h post tenth dose
[23] = Compound 2 50 mg/kg PO QD×10, 2 h post tenth dose
[24] = Compound 2 50 mg/kg PO QD×10, 4 h post tenth dose
[25] = Compound 2 50 mg/kg PO QD×10, 8 h post tenth dose
[26] = Compound 2 50 mg/kg PO QD×10, 24 h post tenth dose
[27] = Compound 2 50 mg/kg PO QD×10, 48 h post tenth dose
[28] = Compound 2 50 mg/kg PO QD×10, 72 h post tenth dose
[29] = Compound 2 50 mg/kg PO QD×10, 96 h post tenth dose
[30] = repeat 10 day administration of Compound 2, 50 mg/kg PO

| SMILES | calculated concentration in rat plasma (individual rats) [1] | calculated concentration in rat plasma (individual rats) [2] | calculated concentration in rat plasma (individual rats) [3] | calculated concentration in rat plasma (individual rats) [4] | calculated concentration in rat plasma (individual rats) [6] | calculated concentration in rat plasma (individual rats) [7] | calculated concentration in rat plasma (individual rats) [8] | calculated concentration in rat plasma (individual rats) [9] | calculated concentration in rat plasma (individual rats) [10] | % of Parent [12] [%] | AUC0-24 [13] [ng·h/mL] | % of Parent [14] [%] | AUC0-last [15] [ng·h/mL] | Average Concentration [17] [ng/mL] | Average Concentration [18] [ng/mL] | Average Concentration [19] [ng/mL] | Average Concentration [20] [ng/mL] | Average Concentration [21] | Average Concentration [22] [ng/mL] | Average Concentration [23] [ng/mL] | also measured |
| --- | --- | --- | --- | --- | --- | --- | --- | --- | --- | --- | --- | --- | --- | --- | --- | --- | --- | --- | --- | --- | --- |
| CCn1c(C#CCNc2ccc(F)cc2)cc2cc(CNC)ccc21 [Compound 5, 3-{1-Ethyl-5-[(methylamino)methyl]-1H-indol-2-yl}-1-(p-fluorophenylamino)-2-propyne] | 576 ng/mL and 407 ng/mL and 342 ng/mL and 649 ng/mL and 486 ng/mL and 311 ng/mL | 1050 ng/mL and 561 ng/mL and 617 ng/mL and 665 ng/mL and 630 ng/mL and 572 ng/mL | 732 ng/mL and 850 ng/mL and 1120 ng/mL and 738 ng/mL and 774 ng/mL and 861 ng/mL | 941 ng/mL and 742 ng/mL and 901 ng/mL and 752 ng/mL and 872 ng/mL and 696 ng/mL | 532 ng/mL and 434 ng/mL and 580 ng/mL and 539 ng/mL and 753 ng/mL and 738 ng/mL | 513 ng/mL and 639 ng/mL and 761 ng/mL and 625 ng/mL and 671 ng/mL and 616 ng/mL | 789 ng/mL and 675 ng/mL and 859 ng/mL and 1010 ng/mL and 887 ng/mL and 701 ng/mL | 619 ng/mL and 737 ng/mL and 807 ng/mL and 812 ng/mL and 881 ng/mL and 772 ng/mL | 216 ng/mL and 376 ng/mL and 234 ng/mL and 486 ng/mL and 477 ng/mL and 484 ng/mL | 17.6 | 13840 | 18.1 | 19943 | 461.83 | 682.50 | 845.83 | 817.33 | 205.50 ng/mL | 596.00 | 637.50 | calculated concentration in rat plasma (individual rats) [5]: 218 ng/mL and 144 ng/mL and 208 ng/mL and 266 ng/mL and 246 ng/mL and 151 ng/mL; calculated concentration in rat plasma (individual rats) [11]: 6.57 ng/mL and 22.4 ng/mL and 13.6 ng/mL and 55.0 ng/mL and 27.3 ng/mL and 31.2 ng/mL; calculated concentration in rat plasma (individual rats) (Compound 2 50 mg/kg PO QD×10, 72 h post tenth dose, 50 mg/kg): 3.25 ng/mL and 2.30 ng/mL and BLQ (3×) and 17.3 ng/mL; calculated concentration in rat plasma (individual rats) (Compound 2 50 mg/kg PO QD×10, 96 h post tenth dose, 50 mg/kg): BLQ (5×) and 1.27 ng/mL; AUC0-24 [16]: 13,840 ng·h/mL; percent of the parent Compound 2 AUC0-24 [16]: 17.6%; Average Concentration [24]: 820.17 ng/mL; Average Concentration [25]: 771.33 ng/mL; Average Concentration [26]: 378.83 ng/mL; Average Concentration [27]: 26.01 ng/mL; Average Concentration [28]: 7.62 ng/mL; Average Concentration [29]: 1.27 ng/mL; AUC0-last [30]: 19,943 ng·h/mL; percent of parent AUC0-last [30]: 18.1% |
| CCn1c(C#CCNc2ccc(Cl)cc2)cc2cc(CNC3CCN(C)CC3)ccc21 [Compound 7, 1-(p-Chlorophenylamino)-3-{1-ethyl-5-[(1-methyl-4-piperidylamino)methyl]-1H-indol-2-yl}-2-propyne] | 1.44 ng/mL and 1.36 ng/mL and 1.19 ng/mL and 1.33 ng/mL and 1.49 ng/mL and 1.39 ng/mL | 4.12 ng/mL and 1.95 ng/mL and 1.67 ng/mL and 1.93 ng/mL and 1.81 ng/mL and 1.70 ng/mL | 2.46 ng/mL and 2.66 ng/mL and 2.27 ng/mL and 1.68 ng/mL and 1.81 ng/mL and 2.04 ng/mL | 3.52 ng/mL and 2.72 ng/mL and 2.19 ng/mL and 2.24 ng/mL and 2.20 ng/mL and 2.11 ng/mL | 1.25 ng/mL and 1.46 ng/mL and 1.42 ng/mL and 1.49 ng/mL and 1.92 ng/mL and 1.65 ng/mL | 1.81 ng/mL and 2.19 ng/mL and 1.99 ng/mL and 1.41 ng/mL and 1.79 ng/mL and 1.66 ng/mL | 2.46 ng/mL and 2.18 ng/mL and 2.20 ng/mL and 2.42 ng/mL and 2.00 ng/mL and 1.30 ng/mL | 2.31 ng/mL and 2.45 ng/mL and 2.79 ng/mL and 1.81 ng/mL and 2.20 ng/mL and 2.21 ng/mL | BLQ (3×) and 1.07 ng/mL and 1.06 ng/mL and 1.16 ng/mL | 0.0 | 16 | 0.0 | 28 | 1.37 | 2.20 | 2.15 | 2.50 | BLQ | 1.53 | 1.81 | calculated concentration in rat plasma (individual rats) [21]: BLQ; calculated concentration in rat plasma (individual rats) [27]: BLQ; calculated concentration in rat plasma (individual rats) [28]: BLQ; calculated concentration in rat plasma (individual rats) [29]: BLQ; Average Concentration [24]: 2.09 ng/mL; Average Concentration [25]: 2.30 ng/mL; Average Concentration [26]: 1.10 ng/mL; Average Concentration [27]: BLQ; Average Concentration [28]: BLQ; Average Concentration [29]: BLQ |
| CCn1c(C#CCNc2ccc(F)cc2)cc2cc(CNC3CCOCC3)ccc21 [Compound 6, 3-{1-Ethyl-5-[(tetrahydro-2H-pyran-4-ylmino)methyl]-1H-indol-2-yl}-1-(p-fluorophenylamino)-2-propyne] | – | – | – | – | – | – | – | – | – | – | – | – | – | – | – | – | – | – | – | – | AUC0-24 (rat, in vivo, po, 50 mg/kg): 377 ng·h/mL; AUC0-last (rat, in vivo, po, 50 mg/kg): 389 ng·h/mL |
| CCn1c(C#CCNc2ccccc2)cc2cc(CNCc3ccccc3)ccc21 [Compound 4, 1-Anilino-3-[5-(benzylaminomethyl)-1-ethyl-1H-indol-2-yl]-2-propyne] | 52.4 ng/mL and 34.7 ng/mL and 28.5 ng/mL and 58.3 ng/mL and 44.0 ng/mL and 31.4 ng/mL | 98.8 ng/mL and 56.5 ng/mL and 57.4 ng/mL and 65.7 ng/mL and 58.2 ng/mL and 53.3 ng/mL | 72.2 ng/mL and 73.2 ng/mL and 96.5 ng/mL and 63.9 ng/mL and 69.0 ng/mL and 74.3 ng/mL | 86.8 ng/mL and 66.7 ng/mL and 79.4 ng/mL and 71.8 ng/mL and 72.4 ng/mL and 63.5 ng/mL | 48.8 ng/mL and 34.5 ng/mL and 45.1 ng/mL and 46.0 ng/mL and 64.9 ng/mL and 67.1 ng/mL | 42.8 ng/mL and 51.0 ng/mL and 62.7 ng/mL and 54.2 ng/mL and 59.7 ng/mL and 52.9 ng/mL | 66.1 ng/mL and 54.7 ng/mL and 73.4 ng/mL and 93.1 ng/mL and 83.9 ng/mL and 58.7 ng/mL | 53.2 ng/mL and 61.4 ng/mL and 69.2 ng/mL and 67.5 ng/mL and 73.1 ng/mL and 65.4 ng/mL | 17.1 ng/mL and 29.4 ng/mL and 19.7 ng/mL and 38.9 ng/mL and 40.7 ng/mL and 40.1 ng/mL | 1.6 | 1241 | 1.5 | 1620 | 41.55 | 64.98 | 74.85 | 73.43 | 17.88 ng/mL | 51.07 | 53.88 | calculated concentration in rat plasma (individual rats) [5]: 17.9 ng/mL and 11.4 ng/mL and 18.4 ng/mL and 24.0 ng/mL and 22.5 ng/mL and 13.1 ng/mL; calculated concentration in rat plasma (individual rats) [11]: BLQ and 1.97 ng/mL and 1.33 ng/mL and 4.63 ng/mL and 2.28 ng/mL and 2.67 ng/mL; calculated concentration in rat plasma (individual rats) [28]: BLQ; calculated concentration in rat plasma (individual rats) [29]: BLQ; Average Concentration [24]: 71.65 ng/mL; Average Concentration [25]: 64.97 ng/mL; Average Concentration [26]: 30.98 ng/mL; Average Concentration [27]: 2.58 ng/mL; Average Concentration [28]: BLQ; Average Concentration [29]: BLQ |
